Reference: US6087361A, “Aryl-imidazolines and aryl-imidazoles useful as α-2 adrenergic agonists without cardiovascular side effects” (Allergan Sales, Inc., priority 1997, dated 2000)

Tests used:
[1] = target: T1, human α2A (Homo sapiens, UniProt P08913); experiment: Receptor binding, [3H]rauwolscine, CHO-C10 cells expressing human α2A; details: CHO-C10, 22° C., 30 min
T1 construct: expressed in transfected cells; host or cells: CHO cells (CHO-C10)
T1 sequence (P08913 1-465): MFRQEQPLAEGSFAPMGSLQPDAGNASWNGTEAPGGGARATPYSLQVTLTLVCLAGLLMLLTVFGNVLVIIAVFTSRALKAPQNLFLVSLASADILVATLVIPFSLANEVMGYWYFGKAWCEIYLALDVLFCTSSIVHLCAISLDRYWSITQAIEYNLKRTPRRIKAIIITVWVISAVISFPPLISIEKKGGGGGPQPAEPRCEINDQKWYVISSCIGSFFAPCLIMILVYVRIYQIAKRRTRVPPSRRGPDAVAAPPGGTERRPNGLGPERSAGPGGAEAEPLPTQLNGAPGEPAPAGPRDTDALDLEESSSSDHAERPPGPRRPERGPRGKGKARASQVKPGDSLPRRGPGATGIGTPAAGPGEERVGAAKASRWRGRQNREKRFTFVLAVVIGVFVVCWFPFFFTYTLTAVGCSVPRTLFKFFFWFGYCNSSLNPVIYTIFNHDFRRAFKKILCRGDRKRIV
Description: Cell preparation: Chinese hamster ovary (CHO) cells expressing the human α2A and human α2C (CHO-C10 and CHO-C4 respectively) receptors and CHO cells (CHO-RNG) expressing the rat α2B, adrenoceptor were grown to near confluence in Dulbecco's modified Eagle's medium supplemented with 10% fetal bovine serum using standard cell culture methods. Cells were harvested by scraping and placed into cold buffer of the following composition: 50 mM Tris-HCl, 5 mM EDTA, pH 7.4). […] The pellet fraction was washed (resuspended in Tris-HCl, pH 8 buffer and centrifuged for 15-20 minutes at 49,000× g) 2 times and stored at -100° until binding assay.
(§1) Binding Studies: The radioligands [^3 H]rauwolscine (specific activity 80 Ci/mmol) and [^3 H]prazosin (specific activity 76 Ci/mmol) were obtained from New England Nuclear, Boston, Mass. Frozen membrane pellet was resuspended in 25 mM glycine/glycine, pH 7.5 and incubated with radioligand under the following conditions: CHO-C10, CHO-RNG, CHO-C4-[^3 H]rauwolscine, 22° C., 30 minutes; RKC-[^3 H]rauwolscine, 0° C., 120 minutes; and, HCC-[^3 H]prazosin, 22° C., 30 minutes in a final volume of 500 ul. At the end of the incubation period, the samples were filtered through glass filters (Whatman GF/B) in a 96 well cell harvester and rapidly washed four times with 4 mL of iced-cold 50 mM Tris-HCl buffer. The filters were then oven dried and transferred to scintillation vials containing 10 mL of Beckman's Ready Protein® scintillation cocktail for counting. […] Protein concentrations were determined with a protein assay kit from Bio Rad. Binding isotherms, equilibrium dissociation and affinity constants were analyzed and determined by the non-linear least squares curve fitting programs EBDA (BioSoft) or AccuFit Competition/Saturation by Beckman.
Cell Preparation: Chinese hamster ovary (CHO) cells expressing the human α2A (CHO-C10) and the rate α2B (CHO-RNG) […] were grown to near confluence in Dulbecco's modified Eagle's medium supplemented with 10% fetal bovine serum using standard cell culture methods. Cells were harvested by scraping and placed into cold buffer of the following composition: 50 mM Tris-HCl, 5 mM EDTA, pH 7.4). […] The pellet fraction was washed (resuspended in Tris-HCl, pH 8 buffer and centrifuged for 15-20 minutes at 49,000× g) 2 times and stored at […] until binding assay.
(§2) The radioligands [^3 H] rauwolscine (specific activity 80 Ci/mmol) and [^3 H] prazosin (specific activity 76 Ci/mmol) were obtained from New England Nuclear, Boston, Mass. Frozen membrane pellet was resuspended in 25 mM glycine/glycine, pH 7.4 and incubated with radioligand under the following conditions: CHO-C10, CHO-RNG, CHO-C4-[^3 H]rauwolscine, 22° C., 30 min.; and, HCC-[^3 H]prazowsin, 22° C., 30 minutes in a final volume of 500 ul. At the end of the incubation period, the samples were filtered through glass fiber filters (Whatman GF/B) in a 96 well cell harvester and rapidly washed four times which 4 mL of iced-cold 50 mM Tris-CHI buffer. The filters were then oven dried and transferred to scintillation vials containing 5 mL of Beckman's Ready Protein® scintillation cocktail for counting. […] Protein concentrations were determined with a protein assay kit from Bio lad. Binding isotherms, equilibrium dissociation and affinity constants were analyzed and determined by the non-linear least squares curve fitting programs AccuFit Competition/Saturation by Beckman.
(§3) Representative compounds of the present invention were tested according to the procedures given above. […] The receptor binding studies and K1 are measures of the affinity of a compound for a particular receptor.

[2] = target: I2A; experiment: Receptor binding, I2A
[3] = target: α1; experiment: Receptor binding, [3H]prazosin, human cerebral cortex membranes (HCC); details: 22° C., 30 min
Description: Tissue preparation: Membrane suspensions were prepared from human cerebral cortex ([…], for α1 receptors) obtained from the UCI Organ and Tissue Bank. Briefly, tissues (1 g) were homogenized in 25 mL of ice-cold 5 mM Tris, pH 7.4 with a Polytron homogenizer for 30 sec at setting #7, and centrifuged for
10-12 minutes at 300× g at 4° C. The supernatant was filtered through 2 layers of gauze and diluted 1:2 with 50 mM Tris-HCl buffer, pH 7.4, then centrifuged at 49,000× g for 20 minutes. The pellet fraction was washed 3 times (resuspended in Tris-HCl buffer and centrifuged for 20 minutes; at 49,000× g). The pellet was then stored at -80° C. until the binding assay.
as §1, §2, §3

[4] = target: I2B; experiment: Receptor binding, I2B

Ki [1]	Ki [2]	Ki [3]	Ki [4]	SMILES
2.9 nM	64800 nM	181 nM	38600 nM	Nc1cc(Cl)c(NC2=NCCN2)c(Cl)c1 [Example 3]
35 nM	100000 nM	5100 nM	10000 nM	c1cc2c(cc1NC1=NCCN1)NCCN2 [Example 7]
9.6 nM	100000 nM	8720 nM	10000 nM	Cc1c(NC2=NCCN2)ccc2c1NCCN2 [Example 8]
6.1 nM	7560 nM	1120 nM	4590 nM	Brc1c(NC2=NCCN2)ccc2c1NCCN2 [Example 9]
24 nM	24800 nM	6610 nM	3260 nM	CC1CNc2c(ccc(NC3=NCCN3)c2Br)N1 (stereo not drawn) [Example 10]
52 nM	4500 nM	8990 nM	6520 nM	O=C1COc2ccc(NC3=NCCN3)cc2N1 [Example 14]
17 nM	–	2260 nM	–	Cc1c(NC2=NCCN2)ccc2c1NC(=O)CO2 [Example 15]
1.2 nM	100000 nM	473 nM	12100 nM	Cc1c(NC2=NCCN2)ccc2c1NCCO2 [Example 16]
52 nM	141 nM	5210 nM	13 nM	Cc1cccc(Nc2ncc[nH]2)c1C [Example 18]
30 nM	–	11300 nM	–	Cc1c(O)cccc1Nc1ncc[nH]1 [Example 20]
4.9 nM	100000 nM	4180 nM	870 nM	COc1c(C(C)(C)C)cc(C)c(Nc2ncc[nH]2)c1C [Example 22]

SMILES	Ki [1]	Ki [2]	Ki [3]	Ki [4]
Cc1ccccc1NC1=NCCN1 [Example 1]	8.9 nM	1200 nM	5030 nM	–
c1cc2c(cc1NC1=NCCN1)OCCO2 [Example 11]	–	1080 nM	2400 nM	2030 nM
COc1ccc(NC2=NCCN2)c(C)c1OC [Example 12]	5.2 nM	100000 nM	1450 nM	507 nM
Cc1c(NC2=NCCN2)ccc2c1OCCO2 [Example 13]	0.25 nM	100000 nM	129 nM	1220 nM
